Reference: EP4635500A1, “THERAPEUTIC AGENT FOR BACTERIAL INFECTION” (Sumitomo Pharma Co., Ltd., priority 2022, dated 2024)
Converted amounts (≈) assume the structure as drawn. Read-outs that look alike come from different tables or passages of the source.

Tests used:
[1] = test system: Enterobacter cloacae complex; test: MIC and MBC, broth microdilution (Example 4, Table 3); assay type: cell-based; conditions: Enterobacter cloacae complex CDC-164 (NMC-A)
[2] = test system: carbapenemase-producing Enterobacteriaceae (CPE); test: MIC with human plasma or human serum albumin added (Example 12, Table 28); assay type: cell-based
P. aeruginosa [3] = test: MIC, Gram-negative bacteria clinically isolated in the United States (Example 8, Table 16); assay type: cell-based; conditions: Pseudomonas aeruginosa; P. aeruginosa (80 strains) isolated in the United States; Compound A µg/mL in parentheses
Acinetobacter baumannii = test: Systemic infection lethal mouse model, ED50 (Example 15, Table 34); conditions: for ED50: Acinetobacter baumannii, in Mus musculus; for Survival rate: 7 days after infection
Protocol: (§1) The test strains on the agar medium were suspended in saline and adjusted to a Klett unit of about 200 using a Klett Photoelectric Colorimeter. […] Male ICR mice were inoculated intraperitoneally with 0.2 mL of the bacterial suspension. Two hours after the inoculation, saline or a solution for administering the agent of each concentration was administered subcutaneously to the mice in a single dose. The number of mice that survived from Day 1 to Day 7 after infection was recorded.

P. aeruginosa [4] = test: Systemic infection lethal mouse model, ED50 (Example 15, Table 33); conditions: for Survival rate: 7 days after infection; for ED50: Pseudomonas aeruginosa, in Mus musculus, sc
Protocol: as §1

Klebsiella pneumoniae = test: MIC and MBC, broth microdilution (Example 4, Table 3); assay type: cell-based; conditions: Klebsiella pneumoniae; for MIC: read-out: MIC
[5] = ATCCBAA2344, Klebsiella pneumoniae ATCC BAA-2344 (KPC-2)
[6] = ATCCBAA2470, Klebsiella pneumoniae ATCC BAA-2470 (NDM-1)
[7] = ATCCBAA2524, Klebsiella pneumoniae ATCC BAA-2524 (OXA-48)

C[C@@H](O)[C@H]1C(=O)N2C(C(=O)O)=C(S[C@@H]3CN[C@H](C(=O)N(C)C)C3)[C@H](C)[C@H]12 [MEPM, meropenem]
MBC [1]: 32 µg/mL (≈ 83.4 µM) | MIC [1]: 32 µg/mL (≈ 83.4 µM) | MIC ([2]; Escherichia coli, ATCC25922, read-out: MICs of MEPM, E. coli ATCC 25922 (quality control strain), Albumin 0% (standard condition)): 0.015 µg/mL (≈ 0.0391 µM) | MIC ([2]; Escherichia coli, ATCC25922, read-out: MICs of MEPM, E. coli ATCC 25922 (quality control strain), Albumin 4%): 0.03 µg/mL (≈ 0.0782 µM) | MIC ([2]; Escherichia coli, ATCC25922, read-out: MICs of MEPM, E. coli ATCC 25922 (quality control strain), Plasma 20%): 0.03 µg/mL (≈ 0.0782 µM) | MIC ([2]; Escherichia coli, ATCC25922, read-out: MICs of MEPM, E. coli ATCC 25922 (quality control strain), Plasma 50%): 0.03 µg/mL (≈ 0.0782 µM) | MIC ([2]; Escherichia coli, ATCCBAA2340, read-out: MICs of MEPM, E. coli ATCC BAA-2340 (KPC-3), Albumin 0% (standard condition)): 4 µg/mL (≈ 10.4 µM) | MIC ([2]; Escherichia coli, ATCCBAA2340, read-out: MICs of MEPM, E. coli ATCC BAA-2340 (KPC-3), Albumin 4%): 4 µg/mL (≈ 10.4 µM) | MIC ([2]; Escherichia coli, ATCCBAA2340, read-out: MICs of MEPM, E. coli ATCC BAA-2340 (KPC-3), Plasma 20%): 4 µg/mL (≈ 10.4 µM) | MIC ([2]; Escherichia coli, ATCCBAA2340, read-out: MICs of MEPM, E. coli ATCC BAA-2340 (KPC-3), Plasma 50%): 0.5 µg/mL (≈ 1.3 µM) | MIC ([2]; Escherichia coli, ATCCBAA2469, read-out: MICs of MEPM, E. coli ATCC BAA-2469 (NDM-1), Albumin 0% (standard condition)): 32 µg/mL (≈ 83.4 µM) | MIC ([2]; Escherichia coli, ATCCBAA2469, read-out: MICs of MEPM, E. coli ATCC BAA-2469 (NDM-1), Albumin 4%): 16 µg/mL (≈ 41.7 µM) | MIC ([2]; Escherichia coli, ATCCBAA2469, read-out: MICs of MEPM, E. coli ATCC BAA-2469 (NDM-1), Plasma 20%): ≤ 0.12 µg/mL | MIC ([2]; Escherichia coli, ATCCBAA2469, read-out: MICs of MEPM, E. coli ATCC BAA-2469 (NDM-1), Plasma 50%): ≤ 0.12 µg/mL | MIC ([2]; Escherichia coli, NCTC13476, read-out: MICs of MEPM, E. coli NCTC 13476 (IMP-1), Albumin 0% (standard condition)): 4 µg/mL (≈ 10.4 µM) | MIC ([2]; Escherichia coli, NCTC13476, read-out: MICs of MEPM, E. coli NCTC 13476 (IMP-1), Albumin 4%): 4 µg/mL (≈ 10.4 µM) | MIC ([2]; Escherichia coli, NCTC13476, read-out: MICs of MEPM, E. coli NCTC 13476 (IMP-1), Plasma 20%): 1 µg/mL (≈ 2.61 µM) | MIC ([2]; Escherichia coli, NCTC13476, read-out: MICs of MEPM, E. coli NCTC 13476 (IMP-1), Plasma 50%): 0.5 µg/mL (≈ 1.3 µM) | MIC ([2]; Klebsiella pneumoniae, ATCCBAA2342, read-out: MICs of MEPM, K. pneumoniae ATCC BAA-2342 (KPC-3), Albumin 0% (standard condition)): 16 µg/mL (≈ 41.7 µM) | MIC ([2]; Klebsiella pneumoniae, ATCCBAA2342, read-out: MICs of MEPM, K. pneumoniae ATCC BAA-2342 (KPC-3), Albumin 4%): 32 µg/mL (≈ 83.4 µM) | MIC ([2]; Klebsiella pneumoniae, ATCCBAA2342, read-out: MICs of MEPM, K. pneumoniae ATCC BAA-2342 (KPC-3), Plasma 20%): 16 µg/mL (≈ 41.7 µM) | MIC ([2]; Klebsiella pneumoniae, ATCCBAA2342, read-out: MICs of MEPM, K. pneumoniae ATCC BAA-2342 (KPC-3), Plasma 50%): 16 µg/mL (≈ 41.7 µM) | MIC ([2]; Klebsiella pneumoniae, ATCCBAA2344, read-out: MICs of MEPM, K. pneumoniae ATCC BAA-2344 (KPC-2), Albumin 0% (standard condition)): 16 µg/mL (≈ 41.7 µM) | MIC ([2]; Klebsiella pneumoniae, ATCCBAA2344, read-out: MICs of MEPM, K. pneumoniae ATCC BAA-2344 (KPC-2), Albumin 4%): 32 µg/mL (≈ 83.4 µM) | MIC ([2]; Klebsiella pneumoniae, ATCCBAA2344, read-out: MICs of MEPM, K. pneumoniae ATCC BAA-2344 (KPC-2), Plasma 20%): 16 µg/mL (≈ 41.7 µM) | MIC ([2]; Klebsiella pneumoniae, ATCCBAA2344, read-out: MICs of MEPM, K. pneumoniae ATCC BAA-2344 (KPC-2), Plasma 50%): 16 µg/mL (≈ 41.7 µM) | MIC ([2]; Klebsiella pneumoniae, ATCCBAA2470, read-out: MICs of MEPM, K. pneumoniae ATCC BAA-2470 (NDM-1), Albumin 0% (standard condition)): 16 µg/mL (≈ 41.7 µM) | MIC ([2]; Klebsiella pneumoniae, ATCCBAA2470, read-out: MICs of MEPM, K. pneumoniae ATCC BAA-2470 (NDM-1), Albumin 4%): 8 µg/mL (≈ 20.9 µM) | MIC ([2]; Klebsiella pneumoniae, ATCCBAA2470, read-out: MICs of MEPM, K. pneumoniae ATCC BAA-2470 (NDM-1), Plasma 20%): 0.5 µg/mL (≈ 1.3 µM) | MIC ([2]; Klebsiella pneumoniae, ATCCBAA2470, read-out: MICs of MEPM, K. pneumoniae ATCC BAA-2470 (NDM-1), Plasma 50%): 0.5 µg/mL (≈ 1.3 µM) | MIC ([2]; Klebsiella pneumoniae, ATCCBAA2524, read-out: MICs of MEPM, K. pneumoniae ATCC BAA-2524 (OXA-48), Albumin 0% (standard condition)): 1 µg/mL (≈ 2.61 µM) | MIC ([2]; Klebsiella pneumoniae, ATCCBAA2524, read-out: MICs of MEPM, K. pneumoniae ATCC BAA-2524 (OXA-48), Albumin 4%): 0.5 µg/mL (≈ 1.3 µM) | MIC ([2]; Klebsiella pneumoniae, ATCCBAA2524, read-out: MICs of MEPM, K. pneumoniae ATCC BAA-2524 (OXA-48), Plasma 20%): 2 µg/mL (≈ 5.22 µM) | MIC ([2]; Klebsiella pneumoniae, ATCCBAA2524, read-out: MICs of MEPM, K. pneumoniae ATCC BAA-2524 (OXA-48), Plasma 50%): 4 µg/mL (≈ 10.4 µM) | MIC ([2]; read-out: MICs of MEPM, K pneumoniae NCTC13439 (VIM-1), Albumin 0% (standard condition)): 4 µg/mL (≈ 10.4 µM) | MIC ([2]; read-out: MICs of MEPM, K pneumoniae NCTC13439 (VIM-1), Albumin 4%): 2 µg/mL (≈ 5.22 µM) | MIC ([2]; read-out: MICs of MEPM, K pneumoniae NCTC13439 (VIM-1), Plasma 20%): ≤ 0.12 µg/mL | MIC ([2]; read-out: MICs of MEPM, K pneumoniae NCTC13439 (VIM-1), Plasma 50%): ≤ 0.12 µg/mL | MIC50 (P. aeruginosa [3]): 2 µg/mL (≈ 5.22 µM) | MIC90 (P. aeruginosa [3]): 32 µg/mL (≈ 83.4 µM) | ED50 of MEPM (Acinetobacter baumannii; Acinetobacter baumannii CDC-303 (OXA-23, OXA-66), single s.c. dose, with cilastatin 100 mg/kg): ≥ 300 mg/kg | ED50 (Acinetobacter baumannii; read-out: ED50 of MEPM, value estimated by probit analysis, CDC-83 (Serine and metallo), cell prints ND, estimate in brackets, above the highest dose of 300 mg/kg): 401 mg/kg | ED50 (Acinetobacter baumannii; read-out: ED50 of MEPM, value estimated by probit analysis, CDC-303 (Serine), cell prints ND, estimate in brackets, above the highest dose of 300 mg/kg): 6550 mg/kg | ED50 (Acinetobacter baumannii; sc, read-out: ED50 of MEPM): ≥ 300 mg/kg | Survival rate (Acinetobacter baumannii; CDC-83 (Serine and metallo), Dose 30 mg/kg): 0% | Survival rate (Acinetobacter baumannii; CDC-83 (Serine and metallo), Dose 100 mg/kg): 10% | Survival rate (Acinetobacter baumannii; CDC-83 (Serine and metallo), Dose 200 mg/kg): 20% | Survival rate (Acinetobacter baumannii; CDC-83 (Serine and metallo), Dose 300 mg/kg): 40% | Survival rate (Acinetobacter baumannii; CDC-303 (Serine), Dose 50 mg/kg): 10% | Survival rate (Acinetobacter baumannii; CDC-303 (Serine), Dose 100 mg/kg): 0% | Survival rate (Acinetobacter baumannii; CDC-303 (Serine), Dose 200 mg/kg): 10% | Survival rate (Acinetobacter baumannii; CDC-303 (Serine), Dose 300 mg/kg): 20% | Survival rate (P. aeruginosa [4]; CDC-90 (Serine), Dose 10 mg/kg): 0% | Survival rate (P. aeruginosa [4]; CDC-90 (Serine), Dose 30 mg/kg): 10% | Survival rate (P. aeruginosa [4]; CDC-90 (Serine), Dose 100 mg/kg): 90% | Survival rate (P. aeruginosa [4]; CDC-90 (Serine), Dose 300 mg/kg): 100% | Survival rate (P. aeruginosa [4]; CDC-110 (Metallo), Dose 100 mg/kg): 0% | Survival rate (P. aeruginosa [4]; CDC-110 (Metallo), Dose 150 mg/kg): 30% | Survival rate (P. aeruginosa [4]; CDC-110 (Metallo), Dose 200 mg/kg): 60% | Survival rate (P. aeruginosa [4]; CDC-110 (Metallo), Dose 300 mg/kg): 60% | ED50 (P. aeruginosa [4]; 2 h, read-out: ED50 of MEPM (95% confidence intervals), CDC-90 (Serine), single subcutaneous dose 2 hours after infection, with cilastatin at 100 mg/kg): 54.8 mg/kg | ED50 (P. aeruginosa [4]; 2 h, read-out: ED50 of MEPM (95% confidence intervals), CDC-110 (Metallo), single subcutaneous dose 2 hours after infection, with cilastatin at 100 mg/kg): 218 mg/kg | ED50 (P. aeruginosa [4]; read-out: ED50 of MEPM, P. aeruginosa CDC-90 (KPC-5), single s.c. dose, with cilastatin 100 mg/kg): 54.8 mg/kg | ED50 (P. aeruginosa [4]; read-out: ED50 of MEPM, P. aeruginosa CDC-110 (VIM-2), single s.c. dose, with cilastatin 100 mg/kg): 218 mg/kg | MBC (Klebsiella pneumoniae; [5]): 32 µg/mL (≈ 83.4 µM) | MIC (Klebsiella pneumoniae; [5]): 16 µg/mL (≈ 41.7 µM) | MBC (Klebsiella pneumoniae; [6]): 32 µg/mL (≈ 83.4 µM) | MIC (Klebsiella pneumoniae; [6]): 32 µg/mL (≈ 83.4 µM) | MBC (Klebsiella pneumoniae; [7]): 4 µg/mL (≈ 10.4 µM) | MIC (Klebsiella pneumoniae; [7]): 1 µg/mL (≈ 2.61 µM) | MBC (Klebsiella pneumoniae; Klebsiella pneumoniae CDC-112 (KPC-3)): 32 µg/mL (≈ 83.4 µM)
